Patent publication EP4385508A1, “FURAN FATTY ACIDS FOR ENHANCING MUSCLE MASS” (Centre de Coopération Internationale en Recherche …, priority 2022, dated 2024)

Assays:
Citrate synthase (CS) = test: Citrate synthase activity in quadriceps of supplemented C57Bl6 mice; assay type: in vivo; conditions: 20mg/kg oral gavage
Procedure: (§1) Male C57Bl/6J wild-type mice were obtained from Janvier at 12 weeks of age and were randomly assigned to one of the two groups based on body weight. Mice were housed 2 per cage and maintained on a 12-hour light/dark cycle (lights on at 7:30 pm). Food and water were provided ad libitum. Enrichment (nesting cotton squares) was provided in each cage. Mice were treated once daily by oral gavage with vehicle (50% PEG-400, 0.5% Tween 80, and 49.5% distilled water) or FuFA-F2 (20 mg/kg). All animal experiments were performed according to European directives (86/609/CEE and 2010/63/CEE) and approved by the regional animal experimentation ethics committe: Région Languedoc-Roussillon (No36). […]
(§2) Mitochondrial respiratory complex activities were determined as previously described (Casas et al., 2008, PloS ONE, Vol. 3(6) : e2501). Citrate synthase (CS) activity was measured according to Srere (Srere et al., 1967, Science, Vol. 158(3803) : 936-937) by following the color formation of 5-thio-2-nitrobenzoic acid at 412 nm. The enzymatic activity of complex IV (cytochrome c oxidase) was measured according to Wharton and Tzagoloff (Wharton et al., 1967, Methods in Enzymology, Vol. 10, Edn Elsevier BV, Amsterdam, The Netherlands), a spectrophotometer following the oxidation of reduced cytochrome c at 550 nm, pH 7.4, and 37 °C. […]

[1] = test system: complex IV (cytochrome c oxidase); test: Complex IV activity of C2C12 myotubes; assay type: cell-based; conditions: Mus musculus, C2C12, 72 h, 3 days, change vs control, trend p<0.07
Procedure: (§3) Mouse myoblasts of the C2C12 cell line (ATCC) were seeded at a plating density of 7000 cells/cm2 in 6-well plates. They were grown in DMEM high glucose (4.5g/l) supplemented with gentamycin (50 µg/mL), amphotericin (50 µg/mL), and fetal calf serum (10%). Terminal differentiation was induced at cell confluence by lowering the medium serum concentration (0.5%).
(§4) When indicated, FuFA-F2 was added to the culture medium at the indicated concentration. For the differentiation studies, FuFA-F2 was added at the confluence at the same time as the change in media condition. Three doses of FuFA-F2 were studied at a final concentration of 1, 10, or 50 µM. Human insulin was used at a concentration of 100 nM.
as §2, with “°C. Cytochrome c was reduced with sodium dithionite.” for “°C.”

myosin heavy chains = test: Myosin heavy chain gene expression in quadriceps of supplemented C57Bl6 mice; assay type: in vivo; conditions: 20mg/kg oral gavage
Procedure: as §1, with “(No36). Our institutional guidelines for the care and use of laboratory animals were observed.” for “(No36).”
The PCR overall efficiency (E) was calculated from the slopes of the standard curves according to the equation E = [10^(-1/slope)] - 1, and this value was higher than 95% for all assays. The relative abundance of each sample was then normalized according to the equation: relative quantity = 2^- […]Ct. All of the experiments were performed according to the minimum information for publication of quantitative real-time PCR experiment (MIQE) guidelines (Bustin et al., 2009, Clin Chem, Vol. 55(4) : 611-622; Schmittgen et al., 2008, Net Protoc, Vol. 3(6) : 1101-1108). […]

complex IV = test: Mitochondrial complex IV activity in quadriceps of supplemented C57Bl6 mice; assay type: in vivo; conditions: 20mg/kg oral gavage, vs control
Procedure: as §1, §2

Citrate synthase = Citrate synthase activity of C2C12 myotubes; assay type: cell-based, Mouse; conditions: 3 days of treatment of C2C12 myotubes
Procedure: as §3, §4
as §2, with “°C. Cytochrome c was reduced with sodium dithionite.” for “°C.”

Q: Which results are given for `CCCCCc1cc(C)c(CCCCCCCCC(=O)O)o1` [FuFA-F2]?
A: Citrate synthase (CS) (Citrate synthase (CS)): not modified; activation at 10 µM [1]: 60%; MyHCIIa expression at the expense of MyHCIIb (myosin heavy chains): trend towards an increase; expression of the different myosin heavy chains (myosin heavy chains; treated vs not treated): did not indicate any significant difference; complex IV activity of mitochondrial respiratory chain complexes (complex IV): significant increase; citrate synthase activity (Citrate synthase): no effect
